# Measurements from the NIST ThermoML archive (doi:10.1021/je700523b).
# ± gives the expanded uncertainty stated by the source.
# Assay: wn = mass fraction of the nth substance listed
# Conditions: 298.15 K; for surface tension liquid-gas: Pendant drop shape; for mass density / viscosity: 101 kPa, Liquid; for mass density: Vibrating tube method
structure (smiles),measurement,setting,value
CCOS(=O)(=O)[O-].CCn1cc[n+](C)c1 [1-ethyl-3-methylimidazolium ethyl sulfate] + O,surface tension liquid-gas,w2 = 0.000475,47 ± 1.2 mN/m
same,surface tension liquid-gas,w2 = 0.00754,47.23 ± 1.2 mN/m
same,surface tension liquid-gas,w2 = 0.0144,48.01 ± 1.3 mN/m
same,surface tension liquid-gas,w2 = 0.02531,48.08 ± 1.3 mN/m
same,surface tension liquid-gas,w2 = 0.03047,48.09 ± 1.2 mN/m
same,surface tension liquid-gas,w2 = 0.03849,47.93 ± 1.2 mN/m
same,surface tension liquid-gas,w2 = 0.04185,48.14 ± 1.2 mN/m
same,surface tension liquid-gas,w2 = 0.05643,47.95 ± 1.2 mN/m
same,surface tension liquid-gas,w2 = 0.06937,48.25 ± 1.2 mN/m
same,surface tension liquid-gas,w2 = 0.07519,48.97 ± 1.2 mN/m
same,surface tension liquid-gas,w2 = 0.09292,49.35 ± 1.2 mN/m
same,surface tension liquid-gas,w2 = 0.09493,50.11 ± 1.2 mN/m
same,mass density,w2 = 0.000475,1236.26 ± 8.3 kg/m3
same,mass density,w2 = 0.00754,1234.51 ± 8.2 kg/m3
same,mass density,w2 = 0.0144,1233.93 ± 8.1 kg/m3
same,mass density,w2 = 0.02531,1231.35 ± 7.8 kg/m3
same,mass density,w2 = 0.03047,1230 ± 7.7 kg/m3
same,mass density,w2 = 0.03849,1227.15 ± 7.6 kg/m3
same,mass density,w2 = 0.04185,1228.01 ± 7.5 kg/m3
same,mass density,w2 = 0.05643,1226.3 ± 7.3 kg/m3
same,mass density,w2 = 0.06937,1222.45 ± 7 kg/m3
same,mass density,w2 = 0.07519,1219.51 ± 6.9 kg/m3
same,mass density,w2 = 0.09292,1215.44 ± 6.6 kg/m3
same,mass density,w2 = 0.09493,1214.98 ± 6.6 kg/m3
same,viscosity,w2 = 0.000475,91.85 ± 45 mPa·s
same,viscosity,w2 = 0.00754,83.6 ± 35 mPa·s
same,viscosity,w2 = 0.0144,70.21 ± 19 mPa·s
same,viscosity,w2 = 0.02531,65.61 ± 14 mPa·s
same,viscosity,w2 = 0.03047,55.78 ± 5.1 mPa·s
same,viscosity,w2 = 0.03849,41.85 ± 7.8 mPa·s
same,viscosity,w2 = 0.04185,33.3 ± 6.2 mPa·s
same,viscosity,w2 = 0.05643,30.63 ± 5.7 mPa·s
same,viscosity,w2 = 0.06937,24.8 ± 4.6 mPa·s
same,viscosity,w2 = 0.07519,23.63 ± 4.4 mPa·s
same,viscosity,w2 = 0.09292,17.41 ± 3.3 mPa·s
same,viscosity,w2 = 0.09493,14.73 ± 2.8 mPa·s
